Source: publication PMC8571951, “An activity‐based bioprobe differentiates a novel small molecule inhibitor from a LOXL2 antibody and provides renewed promise for anti‐fibrotic therapeutic strategies” (Clinical and Translational Medicine, 2021)

Experiments:
Type in all cases: biochemical
rh LOXL2 = target: T1, rh LOXL2 (Homo sapiens, UniProt Q9Y4K0); assay: Jump dilution assay, rh LOXL2
T1 sequence (Q9Y4K0 26-774): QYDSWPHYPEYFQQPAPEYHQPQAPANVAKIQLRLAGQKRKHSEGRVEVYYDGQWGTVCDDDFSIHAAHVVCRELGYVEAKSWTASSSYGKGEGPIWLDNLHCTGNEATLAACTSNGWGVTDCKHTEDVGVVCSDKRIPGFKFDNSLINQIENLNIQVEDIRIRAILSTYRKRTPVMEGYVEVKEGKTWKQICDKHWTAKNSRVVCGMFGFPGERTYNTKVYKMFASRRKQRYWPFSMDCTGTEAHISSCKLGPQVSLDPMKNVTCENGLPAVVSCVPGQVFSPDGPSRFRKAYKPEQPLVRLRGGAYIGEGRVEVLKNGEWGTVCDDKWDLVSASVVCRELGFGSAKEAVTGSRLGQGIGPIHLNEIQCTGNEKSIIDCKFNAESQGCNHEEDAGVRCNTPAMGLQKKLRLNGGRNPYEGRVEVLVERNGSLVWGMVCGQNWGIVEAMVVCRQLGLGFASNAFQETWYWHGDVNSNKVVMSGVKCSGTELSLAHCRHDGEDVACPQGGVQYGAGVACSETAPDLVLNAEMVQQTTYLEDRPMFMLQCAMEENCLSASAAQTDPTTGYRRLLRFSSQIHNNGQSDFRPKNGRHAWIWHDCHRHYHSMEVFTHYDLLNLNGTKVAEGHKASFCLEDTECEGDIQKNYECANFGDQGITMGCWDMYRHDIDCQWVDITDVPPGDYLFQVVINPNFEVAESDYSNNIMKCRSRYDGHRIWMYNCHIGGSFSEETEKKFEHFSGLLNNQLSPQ
Source text: (§1) FIGURE 1 Characteristics of the activity‐based probe (ABP) PXS‐5878. (A) Chemical structure of PXS‐5878, with functional subunits denoted with different colours. The fluoroallylamine moiety (blue) was designed to interact with the lysine tyrosylquinone (LTQ) co‐factor within the lysyl oxidase active sites. An extended linker (green) was incorporated to provide optimal separation between the reactive functional group and the tag, avoiding unfavourable steric hindrance. Biotin was selected as a tag, with higher sensitivity found to be achieved using a double tag (red), resulting in PXS‐5878 as the preferred ABP. (B) Concentration‐dependent inhibition of recombinant human (rh) lysyl oxidase‐like 1‐4 (LOXL1‐4) and native bovine LOX in a standard Amplex Red assay with 30 min pre‐incubation; n = 3–4 independent experiments, standard error of mean (SEM). Native bovine LOX was used as a surrogate for human LOX as both enzymes have similar pharmacology for fluoroallylamines.[2], [9] (C) Irreversible nature of PXS‐5878 enzyme inhibition confirmed using a jump dilution assay. Enzyme (rh LOXL1, rh LOXL2 or LOXL3) was pre‐incubated with 10 × IC50 of PXS‐5878 for 30 min, then diluted 100x and remaining activity assessed by Amplex Red assay. […] Each value is an average of three experiments. (D) Schematic representation of the assay development to detect lysyl oxidase activity by PXS‐5878 using a direct enzyme‐linked assay with lysyl oxidases as the target analyte. HRP: horseradish peroxidase; TMB: 3,3′,5,5′‐tetramethylbenzidine, a chromogenic substrate. […]
For fluoroallylamine-based inhibitors, replacement of fluorine with hydrogen (leading to the corresponding des-fluoro structures) results in a drop in potency and a switch from irreversible to reversible inhibition. […] (B) For PXS-5878, removal of the fluoro moiety in a simplified analogue results in a significant drop in potency for LOXL2, meaning (ir)reversibility cannot be accurately measured.

rh LOXL1 = target: T2, rh LOXL1 (Homo sapiens, UniProt Q08397); assay: Jump dilution assay, rh LOXL1; details: 10 × IC50 for 30 min, diluted 100x
T2 sequence (Q08397 96-574): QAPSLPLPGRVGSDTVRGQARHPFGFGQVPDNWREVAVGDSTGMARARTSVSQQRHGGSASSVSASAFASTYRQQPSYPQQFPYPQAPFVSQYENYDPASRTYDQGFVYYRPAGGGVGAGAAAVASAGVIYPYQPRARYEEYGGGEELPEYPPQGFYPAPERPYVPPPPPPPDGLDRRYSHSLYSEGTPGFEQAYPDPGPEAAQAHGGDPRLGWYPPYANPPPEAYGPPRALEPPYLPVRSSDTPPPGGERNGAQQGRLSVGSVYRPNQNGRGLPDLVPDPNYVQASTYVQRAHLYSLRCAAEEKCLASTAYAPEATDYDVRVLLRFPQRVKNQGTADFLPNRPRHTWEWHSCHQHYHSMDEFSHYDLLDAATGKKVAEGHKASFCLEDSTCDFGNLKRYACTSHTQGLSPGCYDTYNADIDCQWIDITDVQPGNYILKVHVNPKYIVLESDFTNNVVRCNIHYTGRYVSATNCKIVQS
Source text: as §1, with “experiments.” for “experiments. (D) Schematic representation of the assay development to detect lysyl oxidase activity by PXS‐5878 using a direct enzyme‐linked assay with lysyl oxidases as the target analyte. HRP: horseradish peroxidase; TMB: 3,3′,5,5′‐tetramethylbenzidine, a chromogenic substrate.”

LOXL3 = target: T3, LOXL3 (Homo sapiens, UniProt P58215); assay: Jump dilution assay, LOXL3; details: 10 × IC50 for 30 min, diluted 100x
T3 sequence (P58215 26-753): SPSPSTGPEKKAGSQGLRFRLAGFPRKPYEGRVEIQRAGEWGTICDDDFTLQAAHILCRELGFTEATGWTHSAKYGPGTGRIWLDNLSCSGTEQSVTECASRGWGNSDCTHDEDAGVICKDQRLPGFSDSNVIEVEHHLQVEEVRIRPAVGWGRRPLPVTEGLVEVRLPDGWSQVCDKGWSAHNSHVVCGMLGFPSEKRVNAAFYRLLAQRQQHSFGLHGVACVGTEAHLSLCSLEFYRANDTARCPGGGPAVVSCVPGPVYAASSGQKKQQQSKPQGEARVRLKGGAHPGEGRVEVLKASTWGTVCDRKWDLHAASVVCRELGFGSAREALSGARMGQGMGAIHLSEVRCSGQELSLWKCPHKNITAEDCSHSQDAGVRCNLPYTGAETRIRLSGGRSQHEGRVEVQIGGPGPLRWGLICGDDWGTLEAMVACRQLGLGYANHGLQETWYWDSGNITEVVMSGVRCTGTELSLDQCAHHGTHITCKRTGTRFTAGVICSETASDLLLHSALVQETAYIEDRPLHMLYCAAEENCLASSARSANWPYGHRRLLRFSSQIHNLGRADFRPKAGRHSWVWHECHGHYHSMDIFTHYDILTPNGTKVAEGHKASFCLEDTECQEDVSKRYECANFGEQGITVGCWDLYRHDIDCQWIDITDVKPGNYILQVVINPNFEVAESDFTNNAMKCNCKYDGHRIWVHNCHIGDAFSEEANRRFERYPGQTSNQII
Source text: as §1, with “experiments.” for “experiments. (D) Schematic representation of the assay development to detect lysyl oxidase activity by PXS‐5878 using a direct enzyme‐linked assay with lysyl oxidases as the target analyte. HRP: horseradish peroxidase; TMB: 3,3′,5,5′‐tetramethylbenzidine, a chromogenic substrate.”

SMILES | Mode of inhibition (reversible/irreversible) of LOXL2 (rh LOXL2) | Recovery of enzyme activity after jump dilution (rh LOXL1) | Recovery of enzyme activity after jump dilution (rh LOXL2; rh LOXL2, 10 × IC50 for 30 min, diluted 100x) | Recovery of enzyme activity after jump dilution (LOXL3)
CC(C)c1c(Cc2ccc(S(C)(=O)=O)nc2)c2ncccc2n1CC=CCN [des‐fluoro‐PXS‐5338] | reversible inhibitor |  |  | 
NC/C=C(\F)CS(=O)(=O)c1cccc(Cn2cc(-c3cc(OCCCc4cn(CCCCC[C@@H]5SC[C@@H]6NC(=O)N[C@@H]65)nn4)cc(OCCCc4cn(CCCCC[C@@H]5SC[C@@H]6NC(=O)N[C@@H]65)nn4)c3)nn2)c1 [PXS‐5878] |  | Little to no recovery in enzyme activity | Little to no recovery in enzyme activity | Little to no recovery in enzyme activity
